Test results published in ChEMBL document CHEMBL1155620, “Two new biologically active triterpene saponins from Acanthophyllum squarrosum” (J Nat Prod, 2000).
Calls of active or inactive are those of the source. The rule behind the calls is not given here.

Key:
[1] = Cytotoxicity against mouse lymphocytes at 100 ug/mL by MTS assay
[2] = Suppression of concanavalin A-induced proliferation in mouse T-lymphocytes at 1 ug/mL by MTS assay; type: functional
[3] = Cytotoxicity against mouse lymphocytes at 10 ug/mL by MTS assay
Mus musculus [4] = species: Mus musculus; assay: Increase in LPS-induced proliferation in mouse B-lymphocytes at 1 ug/mL by MTS assay; type: functional, cell-based
Mus musculus [5] = species: Mus musculus; assay: Immunostimulant activity in mouse lymphocytes at 100 pg/ml to 1 ug/mL by MTS assay; type: functional, cell-based
Mus musculus [6] = species: Mus musculus; assay: Increase in concanavalin A-induced proliferation in mouse T-lymphocytes at 1 ug/mL by MTS assay; type: functional, cell-based

SMILES	Activity [1]	Activity [2]	Activity [3]	Activity (Mus musculus [4])	Activity (Mus musculus [5])	Activity (Mus musculus [6])
C[C@@H]1O[C@@H](O[C@@H]2[C@@H](O)[C@H](OC(=O)[C@]34CCC(C)(C)C[C@H]3C3=CC[C@@H]5[C@@]6(C)CC[C@H](O[C@@H]7O[C@H](C(=O)O)[C@@H](O)[C@H](O[C@@H]8OC[C@@H](O)[C@H](O)[C@H]8O)[C@H]7O[C@@H]7O[C@H](CO)[C@H](O)[C@H](O)[C@H]7O)[C@@](C)(C=O)[C@@H]6CC[C@@]5(C)[C@]3(C)CC4)O[C@H](C)[C@@H]2O[C@@H]2O[C@@H](C)[C@H](O[C@@H]3OC[C@@H](O)[C@H](O[C@@H]4OC[C@@H](O)[C@H](O)[C@H]4O)[C@H]3O)[C@@H](O)[C@H]2O)[C@H](O)[C@H](O)[C@H]1O	58%	40%	Non-toxic	Active	Active	–
C[C@@H]1O[C@@H](O[C@H]2[C@H](O[C@H]3[C@H](OC(=O)[C@]45CCC(C)(C)C[C@H]4C4=CC[C@@H]6[C@@]7(C)CC[C@H](O[C@@H]8O[C@H](CO)[C@@H](O)[C@H](O)[C@H]8O)[C@@](C)(C=O)[C@@H]7CC[C@@]6(C)[C@]4(C)CC5)O[C@H](CO[C@@H]4O[C@H](CO)[C@@H](O)[C@H](O)[C@H]4O)[C@@H](O)[C@@H]3O)OC[C@H](O)[C@@H]2O)[C@H](O)[C@H](O)[C@H]1O	Non-toxic	–	–	Active	–	Active
